This note sets out measurements from patent US20150283240A1, “STABILIZED COMPOSITIONS COMPRISING A […] ACTIVE AGENT AND AN OXIDIZING PRESERVATIVE” (Allergan, Inc., priority 2014, published 2015).

Each structure is given as a SMILES string.

For data set [1] the following is noted: for Stabilization of chlorine dioxide (in words): excipients of Table 1 in brimonidine composition; for Stabilized Chlorine Dioxide Concentration, 0 Days / Stabilized Chlorine Dioxide Concentration, 7 Days / Stabilized Chlorine Dioxide Concentration, 14 Days: ingredient added at stated ppm to proprietary brimonidine composition.
Experimental: Each of the excipients was added, in the amounts shown, to a proprietary composition comprising brimonidine as a therapeutically active agent.
The format of data set [2] is physicochemical. As for the experimental part: A composition, prepared according to Table 5, was entirely manufactured in a single batch vessel and was prepared as follows. The ingredients are added into purified water with mixing in the following order: sodium phosphate dibasic heptahydrate, citric acid monohydrate, sodium chloride, bimatoprost, and Purite®. Each ingredient was allowed to dissolve completely before the next ingredient was added. The pH was then measured and adjusted to 7.3, and purified water was added to bring the composition to final volume.

Data set [3] in a line: Effect of citrate on bimatoprost and Purite stability in the composition of Table 4 at 50° C. It is filed as physicochemical. To be noted: compositions D (citric acid 0.014%) vs E, 50° C., 3, 6 and 10 weeks, FIGS. 1 and 2. How it is done: Compositions D and E were prepared according to Table 4 by a procedure similar to that described in Example 2. […] The samples were stored at 50° C. and the concentrations of bimatoprost (FIG. 1) and Purite® (FIG. 2) were determined at 3, 6 and 10 weeks.

Take `CC(=O)C(=O)[O-].[Na+]` [Sodium Pyruvate]: the “Stabilization of chlorine dioxide (in words)” value (“Stabilization” below) in data set [1] is “ineffective”.
`O=C[O-].[Na+]` [Sodium Formate]: in data set [1], the “Stabilized Chlorine Dioxide Concentration, 0 Days” value amounted to 42 ppm; the “Stabilized Chlorine Dioxide Concentration, 7 Days” value turned out to be 40 ppm; the “Stabilized Chlorine Dioxide Concentration, 14 Days” value was 36 ppm.
In the case of `NCCN` [Ethylene diamine], the “Stabilization” value in data set [1] is “do not stabilize”.
Consider `O=C([O-])C(=O)[O-].[Na+].[Na+]` [Sodium Oxalate], for which, in data set [1], the “Stabilization” value is “ineffective”; the “Stabilized Chlorine Dioxide Concentration, 0 Days” value amounted to 39 ppm; the “Stabilized Chlorine Dioxide Concentration, 7 Days” value was 38 ppm; the “Stabilized Chlorine Dioxide Concentration, 14 Days” value is on record as 35 ppm.
Take `O=C(O)CN(CCN(CC(=O)O)CC(=O)O)CC(=O)O` [EDTA]: in data set [1], the “Stabilization” value is “do not stabilize”; the “Stabilized Chlorine Dioxide Concentration, 0 Days” value came to 44 ppm; the “Stabilized Chlorine Dioxide Concentration, 7 Days” value amounted to 2 ppm; the “Stabilized Chlorine Dioxide Concentration, 14 Days” value was found to be 0 ppm.
Consider `O=C([O-])/C(O)=C(\O)C(=O)[O-].[Na+].[Na+]` [Sodium Dihydroxyfurmarate], for which, in data set [1], the “Stabilized Chlorine Dioxide Concentration, 0 Days” value stood at 37 ppm; the “Stabilized Chlorine Dioxide Concentration, 7 Days” value is on record as 13 ppm; the “Stabilized Chlorine Dioxide Concentration, 14 Days” value came out at 0 ppm.
As to `O=C(O)CC(O)(CC(=O)O)C(=O)O` [citrate, citric acid], in data set [2], the “Storage stability for bimatoprost and Purite (in words)” value is on record as “excellent storage stability”. Besides, the “Effect of citrate on bimatoprost and Purite stability (in words)” value in data set [3] was “stabilizes both bimatoprost and Purite®”.
For `CC(O)C(=O)[O-].[Na+]` (stereo not drawn) [Sodium Lactate], in data set [1], the “Stabilized Chlorine Dioxide Concentration, 0 Days” value was determined as 45 ppm; the “Stabilized Chlorine Dioxide Concentration, 7 Days” value turned out to be 40 ppm; the “Stabilized Chlorine Dioxide Concentration, 14 Days” value is recorded as 37 ppm.
